Test results taken from patent publication US11034650B2, “Compounds useful for treating a Mannheimia haemolytica or Histophilus somni infection” (Intervet Inc., priority 2016, dated 2021).
In brackets after ≈: the same amount, converted by molar mass.

Columns and labels:
Assay type in all cases: cell-based
[1] = tested on: Mannheimia haemolytica MH 6357 (M7/2, reference strain, cattle infection strain); assay: MIC, broth-microdilution (CLSI VET01-A4), strain MH 6357; details: Mannheimia haemolytica strain MH 6357, broth-microdilution; unit assumed
Method: (§1) For example, representative compounds were tested against ***, Mannheimia haemolytica and Pasteurella multocida, using the conventional broth-dilution assay.
(§2) The Minimum inhibitory concentrations (MIC) of compounds according to the invention for a number of veterinary bacterial pathogens were determined by the broth-microdilution method according to CLSI document VET01-A4.
(§3) Microdilution trays containing a doubling dilution series of the test compound were used for the tests. The MIC results were interpreted according to the CLSI documents VET01-S3. The lowest concentration of compound at which no visible growth (i.e. no turbidity) detected by the unaided eye was recorded as the MIC.

[2] = tested on: Mannheimia haemolytica MH 6374 (ATCC 33396, reference strain); assay: MIC, broth-microdilution (CLSI VET01-A4), strain MH 6374; details: Mannheimia haemolytica strain MH 6374, broth-microdilution; unit assumed
Method: as §1, §2, §3

[3] = tested on: Mannheimia haemolytica MH 10720 (154, BRD field isolate); assay: MIC, broth-microdilution (CLSI VET01-A4), strain MH 10720; details: Mannheimia haemolytica strain MH 10720, broth-microdilution; unit assumed
Method: as §1, §2, §3

[4] = tested on: Mannheimia haemolytica MH 12587 (1071, BRD field isolate, macrolide-resistance: erm+, E+); assay: MIC, broth-microdilution (CLSI VET01-A4), strain MH 12587; details: Mannheimia haemolytica strain MH 12587, broth-microdilution; unit assumed
Method: as §1, §2, §3

[5] = tested on: Mannheimia haemolytica MH 13065 (XB0446-6003.9, BRD field isolate); assay: MIC, broth-microdilution (CLSI VET01-A4), strain MH 13065; details: Mannheimia haemolytica strain MH 13065, broth-microdilution; unit assumed
Method: as §1, §2, §3

[6] = tested on: Mannheimia haemolytica MH 13093 (XB0472-6014.1, BRD field isolate); assay: MIC, broth-microdilution (CLSI VET01-A4), strain MH 13093; details: Mannheimia haemolytica strain MH 13093, broth-microdilution; unit assumed
Method: as §1, §2, §3

[7] = tested on: Pasteurella multocida PM 6267 (P 2225 (L386), reference strain, mouse infection strain); assay: MIC, broth-microdilution (CLSI VET01-A4), strain PM 6267; details: Pasteurella multocida strain PM 6267, broth-microdilution; unit assumed
Method: as §1, §2, §3

[8] = tested on: Pasteurella multocida PM 10775 (080130003051, BRD field isolate); assay: MIC, broth-microdilution (CLSI VET01-A4), strain PM 10775; details: Pasteurella multocida strain PM 10775, broth-microdilution; unit assumed
Method: as §1, §2, §3

[9] = tested on: Pasteurella multocida PM 12080 (IV102277-0093, BRD field isolate); assay: MIC, broth-microdilution (CLSI VET01-A4), strain PM 12080; details: Pasteurella multocida strain PM 12080, broth-microdilution; unit assumed
Method: as §1, §2, §3

SMILES	MIC MH 6357 [1] [µg/mL]	MIC MH 6374 [2] [µg/mL]	MIC MH 10720 [3] [µg/mL]	MIC MH 12587 [4] [µg/mL]	MIC MH 13065 [5] [µg/mL]	MIC MH 13093 [6] [µg/mL]	MIC PM 6267 [7] [µg/mL]	MIC PM 10775 [8] [µg/mL]	MIC PM 12080 [9] [µg/mL]
O=C(N[C@@H](CO)C(=O)NO)c1ccc(C#Cc2ccc(CN3CCN(c4ccccn4)CC3)cc2)cc1 [Compound 82]	1.6 (≈ 3.2 µM)	0.8 (≈ 1.6 µM)	0.4 (≈ 0.801 µM)	3.1 (≈ 6.21 µM)	6.3 (≈ 12.6 µM)	3.1 (≈ 6.21 µM)	≤ 0.1	≤ 0.1	0.8 (≈ 1.6 µM)
CN(C)c1ccc(CNCc2ccc(C#Cc3ccc(C(=O)N[C@@H](CO)C(=O)NO)cc3)cc2)cc1 [Compound 134]	25 (≈ 51.4 µM)	6.3 (≈ 12.9 µM)	6.3 (≈ 12.9 µM)	12.5 (≈ 25.7 µM)	12.5 (≈ 25.7 µM)	25 (≈ 51.4 µM)	0.8 (≈ 1.64 µM)	≤ 0.1	3.1 (≈ 6.37 µM)
O=C(N[C@@H](CO)C(=O)NO)c1ccc(C#Cc2ccc(CNCc3ccc(C(F)(F)F)cc3)cc2)cc1 [Compound 89]	6.3 (≈ 12.3 µM)	3.1 (≈ 6.06 µM)	1.6 (≈ 3.13 µM)	12.5 (≈ 24.4 µM)	6.3 (≈ 12.3 µM)	6.3 (≈ 12.3 µM)	0.4 (≈ 0.782 µM)	≤ 0.1	1.6 (≈ 3.13 µM)
COc1cc2c(cc1OC)CN(Cc1ccc(C#Cc3ccc(C(=O)N[C@@H](CO)C(=O)NO)cc3)cc1)CC2 [Compound 84]	3.1 (≈ 5.85 µM)	3.1 (≈ 5.85 µM)	0.8 (≈ 1.51 µM)	3.1 (≈ 5.85 µM)	3.1 (≈ 5.85 µM)	3.1 (≈ 5.85 µM)	≤ 0.1	≤ 0.1	0.4 (≈ 0.755 µM)
CC(C)(C(NC(=O)c1ccc(C#Cc2ccc(CNC3CC3)cc2)cc1)C(=O)NO)[N+](=O)[O-] (racemic) [Compound 218]	0.4 (≈ 0.888 µM)	0.4 (≈ 0.888 µM)	≤ 0.1	0.8 (≈ 1.78 µM)	0.4 (≈ 0.888 µM)	0.4 (≈ 0.888 µM)	0.4 (≈ 0.888 µM)		≤ 0.1
CC[C@H](C)[C@H](NC(=O)c1ccc(C#Cc2ccc(CNCc3ccc(C)cc3)cc2)cc1)C(=O)NO [Compound 189]	1.6 (≈ 3.31 µM)	3.1 (≈ 6.41 µM)		3.1 (≈ 6.41 µM)	1.6 (≈ 3.31 µM)	3.1 (≈ 6.41 µM)	0.2 (≈ 0.414 µM)	≤ 0.1	0.4 (≈ 0.827 µM)
